The target of test [1] is T1, 14-3-3γ/Tau pS214 complex (Homo sapiens, UniProt P61981).
T1 construct: made in house; host or cells: NiCo21 (DE3) E. coli
In words: Differential scanning fluorimetry of 14-3-3γ with Tau pS214 peptide and compounds. It counts as binding. The settings on record: compound 30 equiv., Tau pS214 10 equiv. How it is done:
(§1) Fig. 5 a Phospho-site selective 14-3-3/Tau PPI stabilization. b SF250μM of selected compounds for stabilization of the 14-3-3γ complex with Tau pS214 and Tau pS324 peptides based on the internal DMSO reference. Mean of two separately performed experiments (see ESI ^† Fig. S9 for the corresponding binding curves). c Differential scanning fluorimetry assay results. Identified melting temperatures (Tm) of 14-3-3γ in the presence of the Tau pS214 or pS324 peptide and compounds 1 and 18. […]
(§2) chromatography (HisTrap high performance cartridges, Cytiva). […] Dialyzed protein was concentrated to ∼40 mg/mL, analyzed by Q -Tof LC/MS, and aliquots were flash -frozen for storage at −80 °C. […]
(§3) DSF was performed using 40 µl samples containing 2.5 µM 14 -3-3ζ, 25 µM Tau peptide (Tau pS2, Tau pS214 or Tau pS324), […] (1% DMSO) and 5x ProteoOrange (Lumiprobe, 5000x stock in DMSO) in 10 mM HEPES, 150 mM NaCl, 50 µM TCEP (pH 7.4). […] Fluorescence intensity was determined using excitation ( λem=525/20 nm) and emission ( λex=570/20 nm) filters.
(§4) Based on these melting curves, the negative derivative melting curve is obtained from which the melting temperature Tm was determined. All described melting temperatures are based on two or three independent experiments, from which the average and standard deviations were determined. […]
(Differential scanning fluorimetry follows unfolding on heating by fluorescence.)

The target in test [2] is T2, 14-3-3γ/Tau pS324 complex (Homo sapiens, UniProt P61981).
T2 construct: made in house; host or cells: NiCo21 (DE3) E. coli
T2 sequence (P61981 whole entry, other chains not shown): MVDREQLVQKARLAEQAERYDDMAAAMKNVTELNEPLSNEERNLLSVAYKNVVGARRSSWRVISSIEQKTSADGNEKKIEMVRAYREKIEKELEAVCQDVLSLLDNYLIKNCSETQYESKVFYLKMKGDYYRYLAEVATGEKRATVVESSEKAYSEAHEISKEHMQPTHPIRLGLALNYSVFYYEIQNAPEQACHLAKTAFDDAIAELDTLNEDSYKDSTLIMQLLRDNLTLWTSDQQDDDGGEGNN
Description: Differential scanning fluorimetry of 14-3-3γ with Tau pS324 peptide and compounds. It counts as binding. The note with it: compound 30 equiv., Tau pS324 10 equiv. How it is done:
as §1, §2, §3, §4

Each structure is given as a SMILES string.

T1 sequence (P61981 whole entry, other chains not shown): as above

Take `O=Cc1ccc(-n2ccnc2-c2ccccc2)cc1Br` [Compound 1]: the “increase in 14-3-3γ melting temperature on addition of compound, Tau pS214 complex” value in test [1] was roughly 0.6 °C. Also, in test [2], the “increase in 14-3-3γ melting temperature on addition of compound, Tau pS324 complex” value was roughly 0.6 °C.

With `CCc1ccc(-c2nccn2-c2ccc(C=O)c(Br)c2)cc1` [Compound 18], the “increase in 14-3-3γ melting temperature on addition of compound, Tau pS214 complex” value in test [1] is roughly 1.7 °C. Besides, the “increase in 14-3-3γ melting temperature on addition of compound, Tau pS324 complex” value in test [2] is roughly 0.2 °C.

The record behind these values is article PMC11892739, “Site-specific molecular glues for the 14-3-3/Tau pS214 protein–protein interaction via reversible covalent imine tethering” (RSC Medicinal Chemistry, 2025).
